Source: US11203565B2, “Ester compound and PIN1 inhibitor, inflammatory disease therapeutic, and colon cancer therapeutic in which said ester compound is used” (Hiroshima University, priority 2016, dated 2021)

Legend:
[1] = target: T1, Pin1 (Homo sapiens, UniProt Q13526); experiment: Evaluation of inhibitory activity on function of Pin1: cell assay using degree of AMPK phosphorylation as index; assay type: cell-based; design: key to Pin1 inhibitory activity: −: Promotion of AMPK phosphorylation was not (or hardly) found.; +: Phosphorylation of AMPK was promoted, but the promotion was weaker than that by C1.; ++: Phosphorylation of AMPK was promoted to the same degree as in the case of C1.; +++: Phosphorylation of AMPK was promoted more strongly than in the case of C1; conditions: 293T cells
T1 construct: endogenous in cells; host or cells: 293T cells
T1 sequence (Q13526 whole entry): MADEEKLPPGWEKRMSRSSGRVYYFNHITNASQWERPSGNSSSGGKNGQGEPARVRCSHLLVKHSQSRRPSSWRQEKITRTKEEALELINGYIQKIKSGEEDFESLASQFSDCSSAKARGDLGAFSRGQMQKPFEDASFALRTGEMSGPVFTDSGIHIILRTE
Procedure: In order to evaluate the inhibitory activities of the compounds of the present invention synthesized in Example 2 on the function of Pin1, an assay using cells was carried out according to a method previously developed by the present inventors (Yusuke Nakatsu et al., Journal of Biological Chemistry, 2015, Vol. 290, No. 40, pp. 24255-24266), using as an index the degree of phosphorylation of AMPK (AMP-activated protein kinase), whose phosphorylation is known to be suppressed by Pin1.
Briefly, 293T cells were plated on a 24-well plate coated with collagen. Forty-eight hours later, each compound (100 μM) synthesized in the Example was added to the plate, and the plate was left to stand in an incubator for 30 minutes. Thereafter, 10 mM 2-DG was added to the plate, and, 1 hour later, each sample was collected using a buffer containing mercaptoethanol and SDS.
According to conventional methods, SDS-PAGE and blotting were carried out, and then blocking was carried out with 3% BSA for 1 hour. Thereafter, reaction was carried out at normal temperature for 1 hour with each of a pAMPK antibody (Cell signaling 1:2000, Can get signal solution 1: diluted by Toyobo) as a primary antibody, and an HRP-linked anti rabbit IgG (GE healthcare 1:4000, Can get signal solution 2: diluted by Toyobo) as a secondary antibody, to perform detection.
As a compound to be compared, C1: (R)-2-(5-(4-methoxyphenyl)-2-methylfuran-3-carboxamido)-3-(naphthalene-6-yl)propanoic acid, which is an already reported Pin1 inhibitor, was used.
In FIG. 3, “-” indicates the degree of phosphorylation of AMPK in a case where no Pin1 inhibitor was added, and “C1”, “H-30”, “H-31”, “H-32”, and “H-33” indicate the degrees of phosphorylation of AMPK in cases where the respective Pin1 inhibitors were added. […] The inhibitory activity on the function of Pin1 was rated as follows based on comparison with the degree of inhibition by C1.

[2] = system: model animals of ulcerative colitis (3% DSS); experiment: Therapeutic experiment using model animals of ulcerative colitis (Example 4); assay type: in vivo, C57BL6 mice; conditions: DSS mice, compound 1 mg/kg/day
Procedure: To C57BL6 mice of 8 weeks old, 3% DSS (dextran sulfate sodium)-containing water or water (control) was administered by allowing the mice to drink it for 7 days. For the mice to which DSS was administered, groups in which 5-ASA (compound name: 5-aminosalicylic acid; generic name: Mesalazine), which is a therapeutic agent for inflammatory bowel diseases, the compound synthesized in Example 2-7 (H-31), or the compound synthesized in Example 2-36 (H-179) was administered, and a group in which no compound was administered were provided. On Day 7 after the beginning of the administration, the body weight of each mouse was measured, and the large intestine was removed from the mouse, followed by carrying out histological study. […] In FIGS. 4(A) and (B), “normal” indicates a case where water was administered, and “DSS” indicates cases where DSS-containing water was administered. “non” indicates a case where no compound was administered, and “5-ASA”, “H-31”, and “H-179” indicate cases where the respective compounds were administered. The dose was as follows: 5-ASA, 300 mg/kg/day; H-31, 1 mg/kg/day; H-179, 1 mg/kg/day. As shown in FIG. 4(A), weight loss due to inflammation of the intestine was found in the cases where DSS was administered.

[3] = system: model animals of ulcerative colitis (DSS); experiment: Comparison between oral and intraperitoneal administration in DSS mice (Example 5); assay type: in vivo; conditions: 1 mg/kg/day
Procedure: A compound whose therapeutic effect on ulcerative colitis could be confirmed in Example 4 (H-31) was studied on the difference in its effect depending on the administration method. […] In FIGS. 5(A) and (B), “normal” indicates a case where water was administered, and “DSS” indicates cases where DSS-containing water was administered. “non” indicates a case where no compound was administered, and “H-31” indicates a case where the compound synthesized in Example 2-7 was administered.

[4] = system: model animals of ulcerative colitis (3% DSS); experiment: Therapeutic experiment using model animals of ulcerative colitis 2 (Example 6); assay type: in vivo, C57BL6 mice; conditions: DSS mice, 1 mg/kg/day
Procedure: To C57BL6 mice of 8 weeks old, 3% DSS (dextran sulfate sodium)-containing water or water (control) was administered by allowing the mice to drink it for 7 days. […] On Day 7 after the beginning of the administration, the body weight of each mouse was measured, and the large intestine was removed from the mouse, followed by carrying out histological study. […] In addition, an experiment for measuring the colon length was carried out.

[5] = system: Pin1 protein; experiment: Confirmation of Pin1 expression level in the intestinal tract of DSS mice (Example 7); assay type: in vivo; conditions: after 7 days of administration
Procedure: The expression level of Pin1 in the intestinal tract was measured for each mouse subjected to the therapeutic experiment in Example 5.
The present results also support that the compound synthesized in Example 2-7 (H-31) prevents development of ulcerative colitis.

[6] = system: NASH model mice; experiment: Therapeutic experiment for NASH in MCDD-fed NASH model mice (Example 8); assay type: in vivo, mice (C57BL/6J); conditions: NASH mice fed MCDD 8 weeks, intraperitoneal 2.5 mg/kg/day 3 times a week
Procedure: In order to test the therapeutic effect of a compound of the present invention on non-alcoholic steatohepatitis (NASH), an animal experiment using NASH model mice was carried out.
The NASH model mice (hereinafter referred to as “NASH mice”) were prepared by feeding male individuals of laboratory mice (C57BL/6J) with methionine-choline-deficient diet (MCDD) for 8 weeks to allow accumulation of fat in the liver. The animal experiment was carried out for a group in which a compound of the present invention (H-31) was intraperitoneally administered 3 times a week at 2.5 mg/kg/day during the 8 weeks of the MCDD feeding period, and a group in which no administration was carried out. In addition, in order to provide control mice, male individuals of laboratory mice (C57BL/6J) were fed with normal diet for 8 weeks.
The results of measurement of the blood AST (GOT) level and the blood ALT (GPT) level in these mice are shown in FIGS. 8(A) and (B), respectively.

[7] = system: colon cancer model mice; experiment: Therapeutic experiment for colon cancer in AOM/DSS colon cancer model mice (Example 9); assay type: in vivo; conditions: oral 1.25 mg/kg/day 3 times a week from Day 6, Day 89, vs control
Procedure: On Day 1, azoxymethane (AOM) was intraperitoneally administered at 12 mg/kg to laboratory mice. Thereafter, from Day 6, a course of 5 days of oral administration of 3% dextran sulfate sodium (DSS) and a period of 16 days without administration of DSS was repeated 4 times to prepare colon cancer model mice having cancer caused by inflammation of the large intestine. A group in which a compound of the present invention (H-31) was administered and a group without administration of the compound of the present invention (control) were provided. In the group in which the compound of the present invention (H-31) was administered, oral administration was carried out 3 times a week at 1.25 mg/kg/day from Day 6.
On Day 89, the colon cancer model mice were dissected, and the number of colon cancer developed and the tumor area per colon cancer (total tumor area/number of tumors) were measured.

Pin1 inhibitory activity ([1]; compound 100 μM, 10 mM 2-DG, pAMPK immunoblot rated by comparison with C1): +++
inhibitory activity on Pin1 (stated in words) ([1]; cell-based experiment, 100 μM): both have inhibitory activities on Pin1
Compound: O=C(O[C@H](Cc1ccc2ccccc2c1)C(=O)O)C1c2ccccc2-c2ccccc21 [Compound H-31]
tissue damage in the large intestine (stained section) ([2]; Day 7): tissue damage in the large intestine was hardly found
weight loss (body weight as ratio to body weight before administration) ([2]; Day 7, vs no compound): the weight loss was significantly smaller
body weight change ([3]; intraperitoneal administration): no significant difference was found
body weight change ([3]; oral administration): a significant decrease in the body weight change
tissue damage in the large intestine (stained section) [4]: tissue damage in the large intestine was hardly found
change in the colon length ([4]; vs no compound): the change in the colon length was significantly smaller
weight loss ([4]; vs no compound): the weight loss was significantly smaller
increase in the Pin1 protein level in the intestinal tract [5]: could be significantly ameliorated
blood ALT (GPT) level [6]: the ALT value decreased
blood AST (GOT) level [6]: the AST value decreased
fibrosis of liver tissue (Azan staining) [6]: fibrosis of liver tissue was remarkably suppressed
number of colon cancer developed [7]: no significant difference in the number of colon cancer
tumor area per colon cancer (total tumor area/number of tumors) [7]: reduction of the tumor area could be found
